As a reminder, the remaining activity is the share of the control activity or signal that is left under treatment.

Common to all, as to test: Dundee protein kinase screen
Holding throughout (format): biochemical

The target of one test is CDK9-Cyclin T1 (Homo sapiens, UniProt P50750). The note with it: CDK9-Cyclin T1, 1µM; read-out: %Remaining activity at 1µM NU6300. Here is the method:
(§1) Prior to determining its cellular activity, we carried out a screen to assess its selectivity against a panel of 131 protein kinases under conditions that would not distinguish between a reversible or irreversible mode of action. […] These 13 kinases and 29 additional kinases, selected for their known sensitivity to other inhibitors within the purine series, were then tested in a modified screening format in which the assay was repeated following a 4-hr pre-incubation (Table S3B). […] However, conformational flexibility around the active site may promote such an interaction with a residue from another part of the structure ([Martin et al., 2012]).
(§2) Table S3, Related to Figure 4. NCL-0006300 protein kinase selectivity. (A) NU6300 was tested at a single concentration of 1µM against 131 protein kinases present in a Dundee protein kinase screen (Bain et al., 2007). Values given are % activity remaining and are the average of duplicate measurements: 0-25% (red), 26-50% (yellow), 51-80% (black) and above 81% (green). The kinase domain sequences (as defined by UniProt) of […]
(§3) have a lysine residue at a position close to CDK2 Lys88 or Lys89. However, in the structure of tyrosine-protein kinase BTK (PDB ID: 3GEN) the residue equivalent to CDK2 Asp86 is Cys481 and therefore there is the potential for a covalent adduct to be formed through this side chain. Ephrin type-B receptor 3 (UniProt entry P54753) also encodes a cysteine residue (Cys717) that by sequence alignment would be predicted to be close to the CDK2 lysine pair. (B) Selected kinases were re-tested in the Dundee kinase screen against NU6300 at a single concentration of 0.5 µM both in the standard assay format and following a 4 hour pre-incubation in the presence of NU6300. Kinases which have very low activity after the 4 hour incubation so that results might not be wholly reliable are boxed in salmon. Kinases where the activity after a 4 hour pre-incubation is < 50% that in the standard assay format are highlighted in red.

The target in the next test is IR (Homo sapiens, UniProt P06213). The note with it: read-out: %Remaining activity at 1µM NU6300. Here is the method: as §1, §2, §3
The target in another test is ZAP70 (Homo sapiens, UniProt P43403). Conditions: ZAP70, 1µM; read-out: %Remaining activity at 1µM NU6300. Here is the method:
as §1, §2, §3

For a further test, the target named is PRAK (Homo sapiens, UniProt Q8IW41). The note with it: read-out: %Remaining activity at 1µM NU6300. The procedure:
as §1, §2, §3

The target in the next test is JAK2 (Homo sapiens, UniProt O60674). The note with it: JAK2, 1µM; read-out: %Remaining activity at 1µM NU6300. Here is the method:
as §1, §2, §3

The target in the next test is PKCζ (Homo sapiens, UniProt Q05513). The note with it: read-out: %Remaining activity at 1µM NU6300. The procedure: as §1, §2, §3
The next test has as its target TrkA (Homo sapiens, UniProt P04629). Conditions: read-out: %Remaining activity at 1µM NU6300. Here is the method: as §1, §2, §3
The next test has as its target T1, EPH-B3 (Homo sapiens, UniProt P54753).
T1 sequence (P54753 34-998): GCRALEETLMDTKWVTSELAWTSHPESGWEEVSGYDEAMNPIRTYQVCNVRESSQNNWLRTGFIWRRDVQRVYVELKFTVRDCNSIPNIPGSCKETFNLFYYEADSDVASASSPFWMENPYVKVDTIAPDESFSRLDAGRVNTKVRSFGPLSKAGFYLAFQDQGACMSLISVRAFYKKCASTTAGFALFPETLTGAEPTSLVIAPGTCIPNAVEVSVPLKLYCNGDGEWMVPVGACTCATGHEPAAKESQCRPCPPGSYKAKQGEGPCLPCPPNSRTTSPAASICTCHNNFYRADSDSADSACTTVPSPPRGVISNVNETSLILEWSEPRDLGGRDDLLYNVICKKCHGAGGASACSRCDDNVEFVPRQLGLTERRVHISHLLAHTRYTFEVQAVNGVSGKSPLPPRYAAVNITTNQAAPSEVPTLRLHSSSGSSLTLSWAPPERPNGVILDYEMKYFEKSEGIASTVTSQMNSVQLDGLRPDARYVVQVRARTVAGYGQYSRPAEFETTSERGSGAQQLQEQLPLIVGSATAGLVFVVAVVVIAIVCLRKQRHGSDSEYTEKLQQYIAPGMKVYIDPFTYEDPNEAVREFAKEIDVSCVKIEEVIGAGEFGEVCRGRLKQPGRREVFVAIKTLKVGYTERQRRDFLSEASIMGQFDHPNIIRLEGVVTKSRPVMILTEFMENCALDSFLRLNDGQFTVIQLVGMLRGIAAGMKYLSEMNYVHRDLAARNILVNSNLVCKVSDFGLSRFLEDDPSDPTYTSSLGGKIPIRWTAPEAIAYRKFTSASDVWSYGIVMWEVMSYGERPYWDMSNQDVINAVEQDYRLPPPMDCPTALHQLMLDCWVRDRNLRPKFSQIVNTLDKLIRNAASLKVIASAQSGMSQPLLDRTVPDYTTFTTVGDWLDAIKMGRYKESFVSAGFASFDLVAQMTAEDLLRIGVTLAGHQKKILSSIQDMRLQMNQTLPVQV
The note with it: EPH-B3, 1µM; read-out: %Remaining activity at 1µM NU6300. The procedure: as §1, §2, §3

The target of another test is SmMLCK (Homo sapiens, UniProt Q15746). Conditions: read-out: %Remaining activity at 1µM NU6300. The procedure:
as §1, §2, §3

The target in the next test is GSK3β (Homo sapiens, UniProt P49841). Conditions: read-out: %Remaining activity at 1µM NU6300. Here is the method:
as §1, §2, §3

The next test has as its target CK2 (Homo sapiens, UniProt P68400). Conditions: CK2, 1µM; read-out: %Remaining activity at 1µM NU6300. The procedure: as §1, §2, §3
The next test addresses HIPK1 (Homo sapiens, UniProt Q86Z02). The note with it: HIPK1, 1µM; read-out: %Remaining activity at 1µM NU6300. Here is the method:
as §1, §2, §3

For the next test, the target named is DYRK1A (Homo sapiens, UniProt Q13627). Conditions: read-out: %Remaining activity at 1µM NU6300. Here is the method: as §1, §2, §3
The target in another test is SIK3 (Homo sapiens, UniProt Q9Y2K2). Conditions: SIK3, 1µM; read-out: %Remaining activity at 1µM NU6300. Here is the method:
as §1, §2, §3

Another test has as its target PRK2 (Homo sapiens, UniProt Q16513). The note with it: PRK2, 1µM; read-out: %Remaining activity at 1µM NU6300. The procedure: as §1, §2, §3
The target in a further test is TTBK1 (Homo sapiens, UniProt Q5TCY1). The note with it: TTBK1, 1µM; read-out: %Remaining activity at 1µM NU6300. The procedure: as §1, §2, §3
TTBK1, sequence (Q5TCY1 whole entry): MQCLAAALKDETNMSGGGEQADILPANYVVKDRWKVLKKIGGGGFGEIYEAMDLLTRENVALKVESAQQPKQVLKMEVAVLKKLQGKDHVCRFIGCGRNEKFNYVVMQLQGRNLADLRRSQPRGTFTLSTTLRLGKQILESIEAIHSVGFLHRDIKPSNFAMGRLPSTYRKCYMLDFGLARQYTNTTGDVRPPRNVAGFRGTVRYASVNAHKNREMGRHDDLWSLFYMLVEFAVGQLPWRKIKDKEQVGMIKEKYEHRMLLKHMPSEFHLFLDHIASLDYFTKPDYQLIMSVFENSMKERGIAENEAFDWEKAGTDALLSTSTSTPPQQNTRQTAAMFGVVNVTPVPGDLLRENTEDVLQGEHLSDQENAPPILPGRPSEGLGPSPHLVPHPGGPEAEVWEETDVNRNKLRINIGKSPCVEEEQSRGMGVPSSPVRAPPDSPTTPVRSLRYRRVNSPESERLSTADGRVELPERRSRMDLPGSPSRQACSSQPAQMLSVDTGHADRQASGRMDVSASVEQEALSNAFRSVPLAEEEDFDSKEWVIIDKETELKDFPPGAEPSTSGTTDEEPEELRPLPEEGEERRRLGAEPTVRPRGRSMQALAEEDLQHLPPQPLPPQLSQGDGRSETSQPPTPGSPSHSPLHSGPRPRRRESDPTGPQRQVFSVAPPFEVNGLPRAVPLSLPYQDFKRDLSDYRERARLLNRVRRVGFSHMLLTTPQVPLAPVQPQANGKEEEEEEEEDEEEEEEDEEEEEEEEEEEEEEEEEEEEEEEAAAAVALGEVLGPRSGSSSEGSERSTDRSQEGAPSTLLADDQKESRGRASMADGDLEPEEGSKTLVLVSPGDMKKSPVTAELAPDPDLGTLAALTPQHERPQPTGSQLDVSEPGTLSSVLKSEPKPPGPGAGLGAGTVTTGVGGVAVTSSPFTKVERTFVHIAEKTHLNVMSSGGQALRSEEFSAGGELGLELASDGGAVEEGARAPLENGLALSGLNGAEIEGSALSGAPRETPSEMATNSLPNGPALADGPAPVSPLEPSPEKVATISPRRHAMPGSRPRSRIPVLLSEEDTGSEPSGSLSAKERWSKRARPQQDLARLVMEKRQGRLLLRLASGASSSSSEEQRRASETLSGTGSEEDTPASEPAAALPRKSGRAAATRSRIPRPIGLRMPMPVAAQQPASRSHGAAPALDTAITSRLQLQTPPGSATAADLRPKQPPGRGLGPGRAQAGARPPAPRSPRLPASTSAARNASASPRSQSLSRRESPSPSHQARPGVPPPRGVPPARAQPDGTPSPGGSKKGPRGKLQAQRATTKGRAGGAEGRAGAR

SmMLCK, sequence (Q15746 923-1914): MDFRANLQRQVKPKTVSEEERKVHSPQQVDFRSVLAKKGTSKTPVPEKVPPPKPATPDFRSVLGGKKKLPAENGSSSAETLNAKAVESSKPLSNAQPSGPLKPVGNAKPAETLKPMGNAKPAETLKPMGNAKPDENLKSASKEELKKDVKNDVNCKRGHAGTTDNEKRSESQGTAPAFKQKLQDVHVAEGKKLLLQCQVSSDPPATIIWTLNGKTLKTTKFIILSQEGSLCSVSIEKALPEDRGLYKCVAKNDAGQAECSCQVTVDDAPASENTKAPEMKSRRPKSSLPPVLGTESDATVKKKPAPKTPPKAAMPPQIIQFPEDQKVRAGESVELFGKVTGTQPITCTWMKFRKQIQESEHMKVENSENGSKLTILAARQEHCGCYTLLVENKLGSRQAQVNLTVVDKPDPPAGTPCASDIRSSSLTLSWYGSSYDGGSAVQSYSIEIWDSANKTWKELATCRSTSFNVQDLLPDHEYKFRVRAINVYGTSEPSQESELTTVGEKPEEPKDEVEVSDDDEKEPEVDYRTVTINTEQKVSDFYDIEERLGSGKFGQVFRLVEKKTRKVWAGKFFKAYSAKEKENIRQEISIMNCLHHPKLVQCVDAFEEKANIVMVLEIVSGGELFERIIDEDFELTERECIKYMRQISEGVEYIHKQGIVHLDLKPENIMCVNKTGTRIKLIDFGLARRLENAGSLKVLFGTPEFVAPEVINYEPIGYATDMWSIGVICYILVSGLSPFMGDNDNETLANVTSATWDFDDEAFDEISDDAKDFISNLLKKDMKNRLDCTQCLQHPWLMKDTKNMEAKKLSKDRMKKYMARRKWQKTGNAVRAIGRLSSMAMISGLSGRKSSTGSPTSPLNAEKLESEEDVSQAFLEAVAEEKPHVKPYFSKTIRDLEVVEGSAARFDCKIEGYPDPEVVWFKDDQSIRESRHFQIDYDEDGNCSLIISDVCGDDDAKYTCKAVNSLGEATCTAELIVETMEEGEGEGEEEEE
TrkA, sequence (P04629 33-796): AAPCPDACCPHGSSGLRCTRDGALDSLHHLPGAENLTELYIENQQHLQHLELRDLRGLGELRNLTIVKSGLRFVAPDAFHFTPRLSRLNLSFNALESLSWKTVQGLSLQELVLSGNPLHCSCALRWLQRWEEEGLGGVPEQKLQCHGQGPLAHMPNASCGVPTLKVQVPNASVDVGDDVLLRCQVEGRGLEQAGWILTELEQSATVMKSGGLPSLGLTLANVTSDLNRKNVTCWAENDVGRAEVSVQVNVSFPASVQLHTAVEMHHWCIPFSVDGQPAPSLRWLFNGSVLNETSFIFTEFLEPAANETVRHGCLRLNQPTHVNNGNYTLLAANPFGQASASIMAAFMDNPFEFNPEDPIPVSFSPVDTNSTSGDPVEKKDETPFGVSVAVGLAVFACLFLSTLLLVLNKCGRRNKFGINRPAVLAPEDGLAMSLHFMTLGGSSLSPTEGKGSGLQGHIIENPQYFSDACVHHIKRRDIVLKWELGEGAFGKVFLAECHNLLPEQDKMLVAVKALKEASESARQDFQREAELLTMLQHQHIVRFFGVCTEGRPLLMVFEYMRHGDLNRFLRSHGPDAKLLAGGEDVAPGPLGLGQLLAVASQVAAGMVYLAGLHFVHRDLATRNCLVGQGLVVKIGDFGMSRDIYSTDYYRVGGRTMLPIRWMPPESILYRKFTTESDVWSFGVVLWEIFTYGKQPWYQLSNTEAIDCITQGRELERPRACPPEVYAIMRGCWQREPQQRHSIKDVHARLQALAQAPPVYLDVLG
PRK2, sequence (Q16513 whole entry): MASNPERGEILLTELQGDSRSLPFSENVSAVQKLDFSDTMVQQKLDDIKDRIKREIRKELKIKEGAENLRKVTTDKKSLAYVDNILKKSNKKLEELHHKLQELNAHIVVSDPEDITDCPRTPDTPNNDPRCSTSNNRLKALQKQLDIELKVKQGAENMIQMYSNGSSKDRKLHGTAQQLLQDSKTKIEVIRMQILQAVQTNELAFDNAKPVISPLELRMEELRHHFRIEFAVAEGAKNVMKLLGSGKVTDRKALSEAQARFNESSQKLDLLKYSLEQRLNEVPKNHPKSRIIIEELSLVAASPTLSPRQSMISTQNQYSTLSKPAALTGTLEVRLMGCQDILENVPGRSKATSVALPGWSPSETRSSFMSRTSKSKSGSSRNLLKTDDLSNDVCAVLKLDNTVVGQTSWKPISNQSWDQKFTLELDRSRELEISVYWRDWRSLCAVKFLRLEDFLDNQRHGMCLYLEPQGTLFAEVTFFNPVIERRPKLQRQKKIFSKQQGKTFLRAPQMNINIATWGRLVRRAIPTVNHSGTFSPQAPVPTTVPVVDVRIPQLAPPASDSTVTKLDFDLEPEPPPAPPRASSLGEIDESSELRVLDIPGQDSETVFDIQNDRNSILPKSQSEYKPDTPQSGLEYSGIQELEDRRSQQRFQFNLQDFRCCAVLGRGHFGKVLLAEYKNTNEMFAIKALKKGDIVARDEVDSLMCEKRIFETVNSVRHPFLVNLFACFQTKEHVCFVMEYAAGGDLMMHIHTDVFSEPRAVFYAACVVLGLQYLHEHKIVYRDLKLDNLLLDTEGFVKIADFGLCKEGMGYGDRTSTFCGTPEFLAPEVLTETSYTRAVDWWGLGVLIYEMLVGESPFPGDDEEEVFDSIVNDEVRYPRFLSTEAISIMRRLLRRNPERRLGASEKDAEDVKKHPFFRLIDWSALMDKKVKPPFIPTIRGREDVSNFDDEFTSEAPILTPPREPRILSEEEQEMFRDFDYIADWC
ZAP70, sequence (P43403 whole entry): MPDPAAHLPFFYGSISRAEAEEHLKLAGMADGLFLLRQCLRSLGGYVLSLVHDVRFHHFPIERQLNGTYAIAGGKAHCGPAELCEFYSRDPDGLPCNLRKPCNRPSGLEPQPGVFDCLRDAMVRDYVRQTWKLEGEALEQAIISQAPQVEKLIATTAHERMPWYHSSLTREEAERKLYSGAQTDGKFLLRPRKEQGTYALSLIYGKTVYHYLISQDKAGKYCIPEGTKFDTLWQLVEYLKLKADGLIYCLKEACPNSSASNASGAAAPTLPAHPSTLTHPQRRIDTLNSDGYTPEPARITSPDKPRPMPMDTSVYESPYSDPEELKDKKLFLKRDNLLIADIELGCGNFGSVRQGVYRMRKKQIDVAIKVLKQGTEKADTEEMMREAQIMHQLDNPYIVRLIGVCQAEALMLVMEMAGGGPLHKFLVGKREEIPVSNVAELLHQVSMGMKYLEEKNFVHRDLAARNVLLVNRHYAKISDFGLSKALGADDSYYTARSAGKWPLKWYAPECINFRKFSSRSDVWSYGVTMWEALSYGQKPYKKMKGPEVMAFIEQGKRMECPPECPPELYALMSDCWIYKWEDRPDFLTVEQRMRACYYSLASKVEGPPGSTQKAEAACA
CK2, sequence (P68400 whole entry): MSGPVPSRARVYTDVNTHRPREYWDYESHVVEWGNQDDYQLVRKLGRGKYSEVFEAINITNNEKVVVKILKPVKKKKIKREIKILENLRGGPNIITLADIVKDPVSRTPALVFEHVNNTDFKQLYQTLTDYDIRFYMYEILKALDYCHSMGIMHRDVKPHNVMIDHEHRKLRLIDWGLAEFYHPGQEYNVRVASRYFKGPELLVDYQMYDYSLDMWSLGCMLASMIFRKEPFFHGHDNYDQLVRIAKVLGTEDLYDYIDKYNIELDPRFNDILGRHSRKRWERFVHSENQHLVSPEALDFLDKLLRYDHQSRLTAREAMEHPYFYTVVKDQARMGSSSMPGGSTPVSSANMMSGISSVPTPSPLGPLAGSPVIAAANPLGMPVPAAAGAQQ

`C=CS(=O)(=O)c1ccc(Nc2nc(OCC3CCCCC3)c3nc[nH]c3n2)cc1` [NU6300, 6-(cyclohexylmethoxy)-N-(4-(vinylsulfonyl)phenyl)-9H-purin-2-amine]: the remaining activity at 1 µM on CDK9-Cyclin T1 is 87%; at IR, 32%; at ZAP70 it was 90%; on PRAK it was 77%; at JAK2, 5%; on PKCζ it was 100%. Further, the remaining activity at 1 µM came to 59% on TrkA; 14% at EPH-B3; 85% at SmMLCK; 42% on GSK3β; 91% at CK2; 93% at HIPK1. Besides, the remaining activity at 1 µM on DYRK1A amounted to 73%; on SIK3, 76%; at PRK2, 50%; at TTBK1 it was 83%.

Values taken from paper PMC4579270, “Identification and Characterization of an Irreversible Inhibitor of CDK2” (Chemistry & Biology, 2015).
